Assay results published in US12281332B2, “Methods of enhancing development of renal organoids and methods of using the same” (President and Fellows of Harvard College, priority 2017, dated 2025).
“Also recorded” adds a separate entry of the source.

Experiments:
Type in all cases: cell-based, human
[1] = tested on: PODXL+ glomeruli-like compartments of kidney organoids; experiment: Vascular invasion of PODXL+ podocyte clusters in kidney organoids on chip, confocal imaging; settings: high FSS, 10 days on chip; bevacizumab, VEGF 100 ng/mL
Text: Glomerular structures of kidney organoids in static culture are largely avascular. Upon animal transplantation, host-derived vascularization of kidney organoids Promotes glomerular vascularization. To determine whether FSS-induced vascularization of organoids in vitro extends to glomerular compartments, PODXL^+ podocyte clusters invaded by MCAMI^+ PECAM1^+ vascular structures were quantified using confocal imaging, in static and high FSS conditions (FIG. 18A and FIG. 18B). […] Given that there is significant upregulation of VEGF-A expression with high FSS (FIG. 18C), organoids cultured under flow can be used to study the role of VEGF in glomerular vascularization in vitro.
As vessel % area is unchanged between endogenous VEGF, VEGF addition, and VEGF inhibition, the difference in glomerular vascularization cannot be attributed to increased abundance of vasculature alone. Meanwhile, the reduced junctional density and increased average vessel length in unperturbed VEGF conditions may be interpreted as vessels growing towards an endogenous VEGF gradient versus more random sporadic growth in the absence of a gradient. Growing with the endogenous VEGF gradient under high flow conditions may allow vessels to reach glomeruli-like compartments in time to invade rather than wrap Bowman's capsule-like structures. […]

[2] = tested on: kidney organoids; experiment: Association of PECAM1+ vasculature with LTL+ tubules, Imaris analysis; settings: for vasculotubular association (percent of vasculature surface area overlapping with LTL+ tubules): 10 days of high flow culture, VEGF 100 ng/mL or VEGF inhibitor in the media
Text: Additionally, enhanced PECAM1^+ networks under high FSS associate with tubular structures in both transverse and longitudinal orientations (FIG. 16(d) and FIG. 17). The researchers quantified the association between PECAM1^+ networks and LTL^+tubules using Imaris surface rendering, distance transformation, and masking tools and reveal that under high flow conditions the percent of vascular surface area in contact with tubules is increased nearly 3 fold in comparison to organoids in static culture (FIG. 17(d)).
Confocal Z-stacks of PECAM1 and LTL were taken of fixed whole mount organoids, both iPSC and ESC derived, in the various culture conditions. The Z-stacks were taken at the limit of the confocal depth with each sample, roughly […] per sample which represents approximately the same volume per organoid analyzed. Those z-stacks were then opened in Imaris imaging software. The confocal 3D rendering was turned into a vascular surface and a tubule surface. Then the Imaris surface on surface area contact tool was used to quantify the percent overlap between the vascular and tubular surfaces in 3D, values were reported in FIG. 17(d). In order to assess the average distance the vasculature was away from a tubule, first an Imaris distance transformation was performed on the tubule surface. Then the resulting channel was masked by the vascular surface to create a new masked distance transformation channel. That masked distance transformation channel was opened in Fiji (ImageJ) to retrieve a histogram of all the 3D points, from which we obtained a geometric mean for each sample which is reported in FIG. 17(c).

[3] = tested on: kidney organoids; experiment: Abundance of vasculature in kidney organoids, PECAM1/CD31 immunostaining and Angiotool; settings: for effect on vasculature formation / vascular growth (summary of studies): FBS 1.5 to 2%; for effect on the CD31+ population of cells (extent and abundance of vasculature): developing organoids age 11-14 Days, additives in advanced RPMI, static and perfused conditions; for vessel % area: high FSS, endogenous VEGF vs VEGF addition vs VEGF inhibition
Protocol: Methods: To determine effects of chemical additives on the developing developing organoids, the vesicles (age 11, 12, 13 and 14 Days) were treated with VEGF additives, GMEC media, PMA additives, antibiotics, or FBS or FCS additives and other components in advanced RPMI media as a base in both static and perfused conditions. The extent and abundance of vasculature was studied using immunostaining.
Confocal Z-stacks of PECAM1 were taken of fixed whole mount organoids, both iPSC and ESC derived, in the various culture conditions. The Z-stacks were taken at the limit of the confocal depth with each sample, roughly […] per sample which represents approximately the same volume per organoid analyzed. Those z-stacks were then flattened using ImageJ to a 2D max intensity projection (as required by the Angiotool for input). The default settings were employed on the Angiotool for analysis and vessel diameters of 4, 7, 10, and 14 were analyzed for each organoid. In all cases, the whole organoid was used for analysis.

Row | Molecule | incidence of invasion of PODXL+ glomeruli-like compartments by PECAM1+MCAM+ vascular networks [1] | vasculotubular association (percent of vasculature surface area overlapping with LTL+ tubules) [2] | average distance in 3D between the vasculature and the tubules ([2]; high flow+VEGF compared with static) | effect on vasculature formation / vascular growth (summary of studies) [3] | outgrowth of endothelial-like cells ([3]; addition of VEGF) | vascular abundance ([3]; culture under FSS, VEGF added in the media) | effect on the CD31+ population of cells (extent and abundance of vasculature) [3] | vessel % area [3] | vascular abundance ([3]; static culture, exogenous VEGF)
1 | vascular endothelial growth factor [VEGF] | significantly reduced | decouples these associations and returns values consistent with static culture levels; also recorded: negated | not statistically significantly different | did not help | robust outgrowth of endothelial-like cells | didn't change | no measureable effects | unchanged | did increase
2 | bevacizumab [reference compound] | significantly reduced | decouples these associations and returns values consistent with static culture levels; also recorded: negated | – | – | – | – | – | unchanged | –
3 | CCCCCCCCCCCCCC(=O)O[C@@H]1[C@@H](C)[C@@]2(O)[C@@H](C=C(CO)C[C@]3(O)C(=O)C(C)=C[C@@H]23)[C@@H]2C(C)(C)[C@]12OC(C)=O [PMA, reference compound] | – | – | – | did not help | – | – | no measureable effects | – | –
